Experimental data as given in ChEMBL document CHEMBL3046286, “4-Fluorophenylhydrazones as potential COX-2 inhibitors: a novel, efficient, one pot solid phase synthesis, docking study and pharmacological evaluation” (2013).

Assays:
Type in all cases: functional
Rattus norvegicus [1] = assay: Antiinflammatory activity in Wistar albino rat assessed as carrageenan-induced paw edema at 50 mg/kg, ip administered 30 mins prior to carrageenan-challenge measured after 3 hrs relative to control; details: route intraperitoneal
Rattus norvegicus [2] = assay: Antiinflammatory activity in Wistar albino rat assessed as carrageenan-induced paw edema at 50 mg/kg, ip administered 30 mins prior to carrageenan-challenge measured after 2 hrs relative to control; details: route intraperitoneal
Rattus norvegicus [3] = assay: Antiinflammatory activity in Wistar albino rat assessed as carrageenan-induced paw edema at 50 mg/kg, ip administered 30 mins prior to carrageenan-challenge measured after 1 hr relative to control; details: route intraperitoneal
Rattus norvegicus [4] = assay: Antiinflammatory activity in Wistar albino rat assessed as carrageenan-induced paw edema at 50 mg/kg, po administered 30 mins prior to carrageenan-challenge measured after 2 hrs relative to control
Rattus norvegicus [5] = assay: Antiinflammatory activity in Wistar albino rat assessed as carrageenan-induced paw edema at 50 mg/kg, po administered 30 mins prior to carrageenan-challenge measured after 1 hr relative to control
Rattus norvegicus [6] = assay: Antiinflammatory activity in Wistar albino rat assessed as carrageenan-induced paw edema at 50 mg/kg, po administered 30 mins prior to carrageenan-challenge measured after 3 hrs relative to control; details: read-out: INH

Structure (SMILES)	inhibition in vivo at 50 mg/kg (Rattus norvegicus [1]) [%]	inhibition in vivo at 50 mg/kg (Rattus norvegicus [2]) [%]	inhibition in vivo at 50 mg/kg (Rattus norvegicus [3]) [%]	inhibition in vivo at 50 mg/kg (Rattus norvegicus [4]) [%]	inhibition in vivo at 50 mg/kg (Rattus norvegicus [5]) [%]	inhibition in vivo at 50 mg/kg (Rattus norvegicus [6]) [%]
O=C(O)Cc1ccccc1Nc1c(Cl)cccc1Cl [DICLOFENAC SODIUM]	46.8	30.4	20.1			
O=C(c1cccs1)C(NNc1ccc(F)cc1)C(=O)C(F)(F)F (stereo not drawn)				7.93	4.11	17.4
O=C(c1ccc([N+](=O)[O-])cc1)C(NNc1ccc(F)cc1)C(=O)C(F)(F)F (stereo not drawn)				8.86	5.05	18.2
O=C(c1ccc(Br)cc1)C(NNc1ccc(F)cc1)C(=O)C(F)(F)F (stereo not drawn)				30.4	17.3	43.2
O=C(c1ccc(F)cc1)C(NNc1ccc(F)cc1)C(=O)C(F)(F)F (stereo not drawn)				28.5	18.3	42.4
COc1ccc(C(=O)C(NNc2ccc(F)cc2)C(=O)C(F)(F)F)cc1 (stereo not drawn)				26.6	15.4	40.6
